Experimental data: patent US20230148184A1, “COMPOUNDS AND METHODS FOR MODULATING SPLICING” (REMIX THERAPEUTICS INC., priority 2020, published 2023)

Columns and labels:
Assay type in all cases: cell-based
[1] = system: HTT mRNA; assay: RT-qPCR splicing assay for HTT mRNA isoforms (canonical junction CJ and alternative junction AJ); conditions: A673 or K562 cell line, 24 hours compound treatment; for IC50: decrease in CJ mRNA; for AC50: increase in AJ mRNA
Protocol: (§1) Compounds described herein were used to modulate RNA transcript abundance in cells. The expression of a target mRNA was measured by detecting the formation of an exon-exon junction in the canonical transcript (CJ). A compound mediated exon-inclusion event was detected by observing an increase in formation of a new junction with an alternative exon (AJ). Real-time qPCR assays were used to detect these splicing switches and interrogate the potency of various compounds towards different target genes. A high-throughput real time quantitative PCR (RT-qPCR) assay was developed to measure these two isoforms of the mRNA (CJ and AJ) for an exemplary gene, HTT, together with a control housekeeping gene, GAPDH or GUSB or PPIA, used for normalization. Briefly, the A673 or K562 cell line was treated with various compounds described herein (e.g., compounds of Formula (I)). After treatment, the levels of the HTT mRNA targets were determined from each sample of cell lysate by cDNA synthesis followed by qPCR.
Cells-to-CT 1-step kit: ThermoFisher A25602, Cells-to-CT lysis reagent: ThermoFisher 4391851C, TaqMan™ Fast Virus 1-Step Master Mix: ThermoFisher 4444436 GAPDH: VIC-PL, ThermoFisher 4326317E (Assay: Hs99999905_m1)—used for K562/suspension cell lines GUSB: VIC-PL, ThermoFisher 4326320E (Assay: Hs99999908_m1)—used for K562/suspension cell lines PPIA: VIC-PL, ThermoFisher 4326316E (Assay: Hs99999904_m1)—used for A673/adherent cell lines
(§2) The A673 cell line was cultured in DMEM with 10% FBS. Cells were diluted with full growth media and plated in a 96-well plate (15,000 cells in 100 ul media per well). The plate was incubated at 37° C. with 5% CO2 for 24 hours to allow cells to adhere. An 11-point 3-fold serial dilution of the compounds was made in DMSO then diluted in media in an intermediate plate. Compounds were transferred from the intermediate plate to the cell plate with the top dose at a final concentration of 10 uM in the well. Final DMSO concentration was kept at or below 0.25%. The cell plate was returned to the incubator at 37° C. with 5% CO2 for an additional 24 hours.
(§3) The K562 cell line was cultured in IMDM with 10% FBS. For K562, cells were diluted with full growth media and plated in either a 96-well plate (50,000 cells in 50 uL media per well) or a 384-well plate (8,000-40,000 cells in 45 uL media per well). An 11-point 3-fold serial dilution of the compounds were made in DMSO then diluted in media in an intermediate plate. Compound was transferred from the intermediate plate to the cell plate with the top dose at a final concentration of 10 uM in the well. Final DMSO concentration was kept at or below 0.25%. Final volume was 100 uL for 96-well plate and 50 uL for 384-well plate. The cell plate was then placed in an incubator at 37° C. with 5% CO2 for 24 hours.
(§4) The cells were then gently washed with 50 uL-100 uL cold PBS before proceeding to addition of lysis buffer. 30 uL-50 uL of room temperature lysis buffer with DNAse I (and optionally RNAsin) was added to each well. Cells were shaken/mixed thoroughly at room temperature for 5-10 minutes for lysis to take place and then 3 uL-5 uL of room temperature stop solution was added and wells were shaken/mixed again. After 2-5 minutes, the cell lysate plate was transferred to ice for RT-qPCR reaction setup. The lysates could also be frozen at −80° C. for later use.
In some cases, a direct lysis buffer was used. An appropriate volume of 3× lysis buffer (10 mM Tris, 150 mM NaCl, 1.5%-2.5% Igepal and 0.1-1 U/uL RNAsin, pH 7.4) was directly added to either K562 or A673 cells in media and mixed by pipetting 3 times. The plates were then incubated at room temperature with shaking/rocking for 20-50 minutes to allow for lysis to take place. After this time, the cell lysate plate was transferred to ice to set up for the RT-qPCR reactions. The lysates could also be frozen at −80° C. for later use. […]

[2] = system: HTT CJ mRNA; assay: Gene panel canonical junction qPCR assay, HTT; conditions: decrease in CJ mRNA levels, RT-qPCR
Protocol: as §1, §2, §3, §4
(§5) In some cases, a direct lysis buffer was used. An appropriate volume of 3× lysis buffer (10 mM Tris, 150 mM NaCl, 1.5%-2.5% Igepal and 0.1-1 U/uL RNAsin, pH 7.4) was directly added to either K562 or A673 cells in media and mixed by pipetting 3 times. The plates were then incubated at room temperature with shaking/rocking for 20-50 minutes to allow for lysis to take place. After this time, the cell lysate plate was transferred to ice to set up for the RT-qPCR reactions. The lysates could also be frozen at −80° C. for later use.
(§6) To set up 10 uL RT-qPCR reactions, cell lysates were transferred to 384-well qPCR plates containing the master mix according to the table below. The plates were sealed, gently vortexed, and spun down before the run. The volumes were adjusted accordingly in some instances where the reaction was carried in 20 uL. The table below summarizes the components of the RT-qPCR reactions:
(§7) The RT-qPCR reaction was performed using a QuantStudio (ThermoFisher) under the following fast cycling conditions. […]

[3] = system: SMN2 CJ mRNA; assay: Gene panel canonical junction qPCR assay, SMN2; conditions: decrease in CJ mRNA levels, RT-qPCR
Protocol: as §1, §2, §3, §4, §5, §6, §7

[4] = system: Target C CJ mRNA; assay: Gene panel canonical junction qPCR assay, Target C; conditions: decrease in CJ mRNA levels, RT-qPCR
Protocol: as §1, §2, §3, §4, §5, §6, §7

Compound | IC50 [1] [nM] | AC50 [1] [nM] | IC50 [2] [nM] | IC50 [3] [nM] | IC50 [4] [nM]
CN(c1ccc2c(n1)OCc1cc(-n3cccn3)ccc1-2)[C@@H]1C[C@H]2CC[C@@H](C1)N2 [Compound 149, (exo)-N-methyl-N-[8-(pyrazol-1-yl)-6H-isochromeno[3,4-b]pyridin-3-yl]-8-azabicyclo[3.2.1]octan-3-amine] | 100 to 1000 | < 100 | 100 to 1000 | 100 to 1000 | 100 to 1000
CN(c1ccc2c(n1)OCc1cc(-c3cnn(C)c3)ccc1-2)[C@@H]1C[C@H]2CC[C@@H](C1)N2 [Compound 150] | < 100 | < 100 | < 100 | > 10000 | 100 to 1000
CN(c1ccc2c(n1)OCc1cc(-n3nccn3)ccc1-2)[C@@H]1C[C@H]2CC[C@@H](C1)N2 [Compound 151] | < 100 | < 100 | < 100 | < 100 | 100 to 1000
CN(c1ccc2c(n1)OCc1cc(-n3ccnn3)ccc1-2)[C@@H]1C[C@H]2CC[C@@H](C1)N2 [Compound 152] | 100 to 1000 | < 100 | 100 to 1000 | < 100 | 100 to 1000
CN(c1ccc2c(n1)OCc1cc(-c3ccn(C)c(=O)c3)ccc1-2)[C@@H]1C[C@H]2CC[C@@H](C1)N2 [Compound 153] | < 100 | < 100 | < 100 | < 100 | < 100
Cc1[nH]ncc1-c1ccc2c(c1)COc1nc(N(C)[C@@H]3C[C@H]4CC[C@@H](C3)N4)ccc1-2 [Compound 154] | 100 to 1000 | 100 to 1000 | 100 to 1000 | 100 to 1000 | 100 to 1000
Cc1ncc(-c2ccc3c(c2)COc2nc(N(C)[C@@H]4C[C@H]5CC[C@@H](C4)N5)ccc2-3)o1 [Compound 155] | < 100 | < 100 | < 100 | < 100 | 100 to 1000
COc1cc(-c2ccc3c(c2)COc2nc(N(C)[C@@H]4C[C@H]5CC[C@@H](C4)N5)ccc2-3)ccn1 [Compound 156] | < 100 | < 100 | < 100 | 100 to 1000 | 100 to 1000
CN(c1ccc2c(n1)OCc1cc(-c3ccc(=O)[nH]c3)ccc1-2)[C@@H]1C[C@H]2CC[C@@H](C1)N2 [Compound 157] | 1000 to 10000 | 1000 to 10000 | 1000 to 10000 | 100 to 1000 | 1000 to 10000
CN(c1ccc2c(n1)OCc1cc(-c3ccc(=O)n(C)c3)ccc1-2)[C@@H]1C[C@H]2CC[C@@H](C1)N2 [Compound 158] | 100 to 1000 | 100 to 1000 | 100 to 1000 | 100 to 1000 | 100 to 1000
COc1cc(-c2ccc3c(c2)COc2nc(N(C)[C@@H]4C[C@H]5CC[C@@H](C4)N5)ccc2-3)cnn1 [Compound 159] | < 100 | < 100 | < 100 | < 100 | < 100
CN(c1ccc2c(n1)OCc1cc(-c3cnn(C)c(=O)c3)ccc1-2)[C@@H]1C[C@H]2CC[C@@H](C1)N2 [Compound 160] | < 100 | < 100 | < 100 | < 100 | < 100
CN(c1ccc2c(n1)OCc1cc(-c3cnc(=O)[nH]c3)ccc1-2)[C@@H]1C[C@H]2CC[C@@H](C1)N2 [Compound 161] | > 10000 | > 10000 | > 10000 | > 10000 | > 10000
CN(c1ccc2c(n1)OCc1cc(-c3cc(=O)n(C)cn3)ccc1-2)[C@@H]1C[C@H]2CC[C@@H](C1)N2 [Compound 162] | < 100 | < 100 | < 100 | < 100 | < 100
CN(c1ccc2c(n1)OCc1cc(-n3ccnc3)ccc1-2)[C@@H]1C[C@H]2CC[C@@H](C1)N2 [Compound 163] | < 100 | < 100 | < 100 | < 100 | 100 to 1000
